Series [1] addresses T1, mTORC1 (Homo sapiens) (UniProt P42345+Q8N122+Q9BVC4). The series can be described thus: Inhibition of mTORC1 in human CLL cells assessed as reduction in c-Myc expression at 5 uM measured after 24 hrs in presence of bortezomib by Western blot analysis. Format: cell-based. The following applies: CLL cell.
The target of series [2] is T1, mTORC1 (Homo sapiens). Put plainly: Inhibition of mTORC1 in human LY10 cells assessed as reduction in 4E-BP1 phosphorylation at 3 uM measured after 24 hrs in presence of bortezomib by Western blot analysis. Format: cell-based.
Series [3] deals with PF-382. The series can be described thus: Induction of apoptosis in human PF-382 cells assessed as increase in cleaved-PARP expression at 5 uM measured after 24 hrs in presence of bortezomib by Western blot analysis. Format: functional, cell-based.
For series [4], the system named is OCI-Ly10. Put plainly: Induction of apoptosis in human LY10 cells assessed as increase in caspase-3/7 activation at 1 to 3 uM measured after 24 hrs in presence of bortezomib. Format: functional, cell-based. The settings on record: dose 1-3 µM.
In series [5] the target is Myc proto-oncogene protein (Homo sapiens) (UniProt P01106). Put plainly: Inhibition of c-Myc in human LY7 cells assessed as reduction in eIF4B expression at 3 uM incubated for 24 hrs in presence of bortezomib by Western blot analysis. Format: cell-based.
Myc proto-oncogene protein (Homo sapiens), sequence (P01106 whole entry, canonical isoform): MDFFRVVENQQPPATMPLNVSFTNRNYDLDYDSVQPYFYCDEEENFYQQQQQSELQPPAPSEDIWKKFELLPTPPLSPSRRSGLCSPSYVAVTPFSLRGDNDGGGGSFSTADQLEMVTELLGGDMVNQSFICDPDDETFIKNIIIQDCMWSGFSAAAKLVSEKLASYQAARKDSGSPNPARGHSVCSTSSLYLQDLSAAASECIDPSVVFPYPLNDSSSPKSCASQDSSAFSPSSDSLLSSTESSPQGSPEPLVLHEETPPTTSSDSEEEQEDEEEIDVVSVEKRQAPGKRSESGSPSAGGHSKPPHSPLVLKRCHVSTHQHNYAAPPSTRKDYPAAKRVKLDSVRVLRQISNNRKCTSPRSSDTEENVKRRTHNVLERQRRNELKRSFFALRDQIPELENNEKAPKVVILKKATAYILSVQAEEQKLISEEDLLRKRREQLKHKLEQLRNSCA
The target of series [6] is T2, Casein kinase I isoform epsilon (Homo sapiens, UniProt P49674). The series can be described thus: Inhibition of CK1epsilon in human LY7 cells assessed as reduction in CK1epsilon autophosphorylation at 25 uM preincubated for 1 hr followed by addition of PP2A inhibitor calyculin A and measured after 15 to 60 mins by Western blot analysis. Format: cell-based. The following applies: time lower 75.0 min, time upper […].
Target sequence in this assay (P49674 whole entry, looked up, canonical isoform): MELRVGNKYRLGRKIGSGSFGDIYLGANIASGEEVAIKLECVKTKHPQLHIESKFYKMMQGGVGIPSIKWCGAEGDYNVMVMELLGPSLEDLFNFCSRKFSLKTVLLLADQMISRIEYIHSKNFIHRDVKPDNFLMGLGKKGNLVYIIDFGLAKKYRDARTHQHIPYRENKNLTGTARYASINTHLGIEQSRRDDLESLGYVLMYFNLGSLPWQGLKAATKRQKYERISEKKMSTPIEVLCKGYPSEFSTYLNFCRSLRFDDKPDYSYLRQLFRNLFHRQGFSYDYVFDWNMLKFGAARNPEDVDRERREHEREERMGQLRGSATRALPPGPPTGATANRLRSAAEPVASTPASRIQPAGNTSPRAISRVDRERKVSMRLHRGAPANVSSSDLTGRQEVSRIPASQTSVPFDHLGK

Series [7] is described as follows: Cytotoxicity against human PBMC assessed as reduction in cell viability at 2.5 to 5 uM measured after 24 to 72 hrs in presence of carfilzomib by cell-titer glo assay. Format: toxicity, cell-based. The settings on record: dose lower 2.5 µM, time lower 24 hrs, dose upper 5 µM, time upper 72 hrs.
The target in series [8] is T1, mTORC1 (Homo sapiens). Put plainly: Inhibition of mTORC1 in human NCI-H929 cells assessed as reduction in c-Myc expression at 5 uM measured after 24 hrs by Western blot analysis. Format: cell-based.
Series [9] concerns the target T1, mTORC1 (Homo sapiens). The series can be described thus: Inhibition of mTORC1 in human PF-382 cells assessed as reduction in c-Myc expression at 5 uM measured after 24 hrs in presence of carfilzomib by Western blot analysis. Format: cell-based.
Series [10] has as its target T1, mTORC1 (Homo sapiens). The series can be described thus: Inhibition of mTORC1 in human CLL cells assessed as reduction in 4E-BP1 phosphorylation at 5 uM measured after 24 hrs in presence of carfilzomib by Western blot analysis. Format: cell-based. The settings on record: CLL cell.
The target in series [11] is T1, mTORC1 (Homo sapiens). The series can be described thus: Inhibition of mTORC1 in human LY7 cells assessed as reduction in c-Myc expression at 3 uM measured after 24 hrs in presence of carfilzomib by Western blot analysis. Format: cell-based.
For series [12], the target named is T3, Phosphatidylinositol 4,5-bisphosphate 3-kinase catalytic subunit delta isoform (Homo sapiens) (UniProt O00329).
T3 sequence (whole entry): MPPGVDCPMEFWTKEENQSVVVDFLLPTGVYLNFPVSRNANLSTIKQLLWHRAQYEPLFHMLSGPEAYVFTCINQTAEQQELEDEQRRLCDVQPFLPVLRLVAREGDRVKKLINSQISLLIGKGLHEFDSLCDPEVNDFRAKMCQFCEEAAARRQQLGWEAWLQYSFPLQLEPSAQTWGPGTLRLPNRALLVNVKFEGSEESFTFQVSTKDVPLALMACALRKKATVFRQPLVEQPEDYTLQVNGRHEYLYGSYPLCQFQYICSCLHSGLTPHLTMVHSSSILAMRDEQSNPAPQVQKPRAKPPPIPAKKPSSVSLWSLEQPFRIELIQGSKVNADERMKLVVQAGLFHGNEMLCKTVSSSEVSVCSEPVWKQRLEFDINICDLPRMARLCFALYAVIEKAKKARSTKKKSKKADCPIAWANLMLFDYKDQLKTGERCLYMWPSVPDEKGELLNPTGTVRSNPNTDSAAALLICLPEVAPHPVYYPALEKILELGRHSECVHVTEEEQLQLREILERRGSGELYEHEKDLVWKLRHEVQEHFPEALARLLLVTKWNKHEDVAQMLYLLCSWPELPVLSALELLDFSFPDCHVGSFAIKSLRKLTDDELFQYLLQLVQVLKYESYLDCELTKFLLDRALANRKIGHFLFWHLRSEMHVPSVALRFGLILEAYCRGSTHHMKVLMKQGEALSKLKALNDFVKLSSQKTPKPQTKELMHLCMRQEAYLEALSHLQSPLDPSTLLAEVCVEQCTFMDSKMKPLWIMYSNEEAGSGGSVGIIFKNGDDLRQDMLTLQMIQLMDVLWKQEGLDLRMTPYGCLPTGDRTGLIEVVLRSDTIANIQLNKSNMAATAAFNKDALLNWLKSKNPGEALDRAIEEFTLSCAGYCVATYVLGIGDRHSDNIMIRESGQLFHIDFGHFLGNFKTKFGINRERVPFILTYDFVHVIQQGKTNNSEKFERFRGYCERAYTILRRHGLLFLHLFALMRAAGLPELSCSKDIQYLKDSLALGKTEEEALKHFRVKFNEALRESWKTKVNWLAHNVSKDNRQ
The series can be described thus: Inhibition of PI3Kdelta in human DB cells assessed as reduction in AKT phosphorylation at S473 residue measured after 4 hrs. Format: cell-based. The following applies: dose 10-10000 nM.

Series [13] concerns the target T3, Phosphatidylinositol 4,5-bisphosphate 3-kinase catalytic subunit delta isoform (Homo sapiens). The series can be described thus: Inhibition of PI3Kdelta in human HL-60 cells assessed as reduction in AKT phosphorylation at S473 residue at 1 uM measured after 4 hrs relative to control. Format: cell-based.
Series [14] shares this target. Put plainly: Inhibition of PI3Kdelta in human Jurkat cells assessed as reduction in AKT phosphorylation at S473 residue at 1 uM measured after 4 hrs relative to control. Format: cell-based.
In series [15] the test system is OCI-Ly7. The series can be described thus: Cytotoxicity against human OCILY7 cells transfected with empty vector assessed as reduction in cell viability at 3 to 5 uM incubated for 24 hrs in presence of carfilzomib by cell-titer glo assay. Format: functional, cell-based. The following applies: dose 3-5 µM.
In series [16] the target is Myc proto-oncogene protein (Homo sapiens) (UniProt P01106). The series can be described thus: Inhibition of c-Myc in human LY10 cells assessed as reduction in E2F1 expression at 3 uM incubated for 24 hrs in presence of carfilzomib by Western blot analysis. Format: cell-based.
The target of series [17] is T2, Casein kinase I isoform epsilon. The series can be described thus: Inhibition of recombinant human full-length N-terminal GST-tagged CK1epsilon expressed in baculovirus infected Sf9 insect cells using casein as substrate measured after 60 mins by ADP-glo kinase assay.
Target sequence in this assay (P49674 whole entry, canonical isoform): as the sequence (P49674 whole entry, looked up, canonical isoform) above
In series [18] the test system is OCILY7. Put plainly: Inhibition of PI3Kdelta/CK1epsilon in human OCILY7 cells transfected with c-Myc-expressing plasmid (M+) assessed as reduction in c-Myc expression at 7.5 to 25 uM measured after 24 hrs by Western blot analysis. Format: cell-based. The following applies: dose 7.5-25 µM.
The test system of series [19] is OCILY7. Put plainly: Inhibition of PI3Kdelta/CK1epsilon in human OCILY7 cells transfected with an empty vector assessed as reduction in c-Myc expression at 7.5 to 25 uM measured after 24 hrs by Western blot analysis. Format: cell-based. The following applies: dose 7.5-25 µM.
The nature of series [20]: Inhibition of PI3Kdelta/CK1epsilon in human OCILY7 cells transfected with c-myc-5'-UTR-luciferase construct assessed as reduction in c-myc translation at 15 uM incubated for 24 hrs by luciferase reporter gene assay relative to control. The following applies: OCI-Ly7.
The subject of series [21] is LY7. The series can be described thus: Inhibition of PI3Kdelta/CK1epsilon in human LY7 cells assessed as reduction in c-Myc expression at 25 uM incubated for 24 hrs by Western blot analysis. Format: cell-based.

Active and inactive are the calls of the source. The calls are words filed in the database; no cut-off is given here.

T1 sequence (Q8N122 whole entry, looked up, other chains not shown): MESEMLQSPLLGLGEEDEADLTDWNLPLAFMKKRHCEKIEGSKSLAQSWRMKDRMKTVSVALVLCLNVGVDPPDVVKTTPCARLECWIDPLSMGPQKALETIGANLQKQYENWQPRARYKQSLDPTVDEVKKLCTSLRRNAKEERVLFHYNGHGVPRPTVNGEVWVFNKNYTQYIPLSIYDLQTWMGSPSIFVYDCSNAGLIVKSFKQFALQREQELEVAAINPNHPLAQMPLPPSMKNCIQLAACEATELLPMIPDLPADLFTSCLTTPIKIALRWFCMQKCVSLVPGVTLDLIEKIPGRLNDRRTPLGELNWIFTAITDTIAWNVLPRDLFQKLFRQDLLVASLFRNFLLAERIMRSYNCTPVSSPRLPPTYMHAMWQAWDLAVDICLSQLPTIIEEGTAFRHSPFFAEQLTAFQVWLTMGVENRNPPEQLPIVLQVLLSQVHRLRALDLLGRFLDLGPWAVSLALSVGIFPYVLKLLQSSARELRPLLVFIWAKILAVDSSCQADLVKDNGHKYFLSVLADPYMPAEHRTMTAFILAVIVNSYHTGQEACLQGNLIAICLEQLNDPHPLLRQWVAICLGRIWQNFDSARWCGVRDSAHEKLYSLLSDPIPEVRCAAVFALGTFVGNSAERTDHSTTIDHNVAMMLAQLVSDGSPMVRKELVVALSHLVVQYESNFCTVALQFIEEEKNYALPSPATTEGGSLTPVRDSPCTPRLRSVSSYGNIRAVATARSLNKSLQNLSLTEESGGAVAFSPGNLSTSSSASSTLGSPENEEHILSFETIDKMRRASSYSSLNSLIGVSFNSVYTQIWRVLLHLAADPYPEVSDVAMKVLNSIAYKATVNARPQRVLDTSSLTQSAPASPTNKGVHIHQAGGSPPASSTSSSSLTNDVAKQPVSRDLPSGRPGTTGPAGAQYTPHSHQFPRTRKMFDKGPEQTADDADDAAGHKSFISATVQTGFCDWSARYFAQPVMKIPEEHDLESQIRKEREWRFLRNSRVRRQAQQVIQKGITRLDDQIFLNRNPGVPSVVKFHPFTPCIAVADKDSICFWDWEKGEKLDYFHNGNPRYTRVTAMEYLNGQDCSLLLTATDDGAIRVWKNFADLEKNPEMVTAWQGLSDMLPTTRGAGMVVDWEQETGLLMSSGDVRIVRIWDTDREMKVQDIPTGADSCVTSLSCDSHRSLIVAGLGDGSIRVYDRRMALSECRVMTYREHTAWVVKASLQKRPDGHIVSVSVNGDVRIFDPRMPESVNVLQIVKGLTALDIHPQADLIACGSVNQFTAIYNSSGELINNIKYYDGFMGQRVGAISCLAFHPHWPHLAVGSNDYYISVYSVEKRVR
T1 sequence (Q9BVC4 whole entry, looked up, other chains not shown): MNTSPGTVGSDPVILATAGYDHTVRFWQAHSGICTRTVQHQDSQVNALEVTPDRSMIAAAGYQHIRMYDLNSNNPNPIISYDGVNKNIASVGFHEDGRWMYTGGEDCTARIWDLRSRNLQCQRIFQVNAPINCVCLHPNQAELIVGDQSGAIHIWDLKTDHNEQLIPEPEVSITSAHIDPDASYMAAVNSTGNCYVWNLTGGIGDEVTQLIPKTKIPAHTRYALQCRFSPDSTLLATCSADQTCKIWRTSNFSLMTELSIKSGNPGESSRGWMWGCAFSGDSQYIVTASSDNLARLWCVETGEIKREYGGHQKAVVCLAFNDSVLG

Turning to `CC[C@H](Nc1ncnc2[nH]cnc12)c1nc2cccc(F)c2c(=O)n1-c1ccccc1`, the inhibition result in series [1], in [2], in series [5] and in series [6] was “inactive” in each case. Besides, the result in series [3] and in series [4] was Active.

On to `CC(C)Oc1ccc(-c2nn([C@@H](C)c3oc4ccc(F)cc4c(=O)c3-c3cccc(F)c3)c3ncnc(N)c23)cc1F` [UMBRALISIB], for which the Activity result in series [7] is “Non-Toxic”. Besides, the inhibition entry in [8] and in [18] was “inactive” each time. The inhibition result in series [9], in series [10], in series [11], in series [16], in [19] and in series [21] was “Active” throughout. Moreover, the figures for the inhibition entry in series [12], in series [13] and in series [14] were “Dose-Dependent Effect”, 43% and 43%, respectively. The result in series [15] was Active. For the same compound, the EC50 in [17] was 6 µM. In addition, the inhibition at 15 µM in series [20] was over 50%.

The values above are taken from ChEMBL document CHEMBL5715954, “Silencing c-Myc translation as a therapeutic strategy through targeting PI3Kδ and CK1ε in hematological malignancies” (Blood, 2017).
